Like-named read-outs stand apart in the source and are kept apart here.
Legend:
NAc DA = assay: Microdialysis: cocaine/heroin (speedball) induced increases in NAc DA; type: in vivo, rats
Description: In vivo microdialysis studies were performed using adult male Sprague-Dawley rats (Taconic Farms) as detailed previously (Morgan and Dewey, 1998). Cocaine, a dopamine reuptake inhibitor, (n=6-8) was administered (i.p.) at a dose of 20 mg/kg while heroin, an indirect dopamine releaser, (n=6-8) was administered (i.p.) at a dose of 0.5 mg/kg. In studies designed to investigate the synergistic effects of a cocaine/heroin combination (n=6-8), both drugs were administered at the identical dose used in the single drug studies. Alone cocaine produced a marked elevation in extracellular DA of approximately 380% above baseline values, 60 minutes following administration. DA returned to baseline within 120 minutes. In contrast, heroin increased NAc DA by only 70%, 60 minutes following administration, returning to baseline within 140 minutes. However, when combined, the two drugs produced an increase in NAc DA of approximately 1000%, 180 minutes following administration that had not returned to baseline values by 200 minutes after reaching peak values (FIG. 9).

rat = details: cited from earlier work
rats [1] = details: microinjection of baclofen into the ventral tegmental area; cited from earlier work
rats [2] = details: baclofen 1.25-5 mg/kg i.p. acute pretreatment; for at least four hours; cited from earlier work
male Wistar rats = details: baclofen; cited from earlier work
GABAA receptor complex = details: in vivo; cited from earlier work
[3] = system: extracellular DA in the NACC; assay: Microdialysis: ethanol-induced increases in NACC DA; type: in vivo, rats; details: ethanol 1.0 g/kg i.p., approximately 125 minutes following administration
Description: All animals were used under an IACUC-approved protocol and with strict adherence to the NIH guidelines. Adult male Sprague-Dawley rats (200-300 g, Taconic Farms), housed in the animals care facility under 12:12 light/dark conditions, were placed into 6 groups (n=5-9), anesthetized and siliconized guide cannulae were stereotactically implanted into the right NACC (2.0 mm anterior and 1.0 mm lateral to bregms, and 7.0 mm ventral to the cortical surface) at least 4 days prior to study. […] Animals were placed in bowls, and probes were inserted and flushed with ACSF overnight. On the day of the study, a minimum of three samples were injected to determine baseline stability. Samples were collected for 20 min. and injected on-line (CMA/160, BAS). The average Dopamine concentration of these three stable samples was defined as control (100%), and all subsequent treatment values were transformed to a percentage of that control. […] The high performance liquid chromatography (HPLC) system consists of a BAS reverse-phase column (3.0 μC-18), a BAS LC-4C electrochemical transducer with a dual/glassy carbon electrode set at 650 mV, a computer that analyzes data on-line using a commercial software package (Chromograph Bioanalytical Systems), and a dual pen chart recorder. The mobile phase (flow rate 1.0 ml/min) consisted of 7.0% methanol, 50 mM sodium phosphate monobasic, 1.0 mM sodium octyl sulfate, and 0.1 mm EDNA, pH 4.0. […] Upon completion of the study, animals were decapitated and frozen sections were obtained for probe placement verification.
Ethanol at a dose of 1.0 g/kg i.p. was administered to the animals.

cocaine abuser = details: case report; cited from earlier work
[4] = system: extracellular DA in the NACC; assay: Microdialysis: methamphetamine-induced increases in NACC DA; type: in vivo, rats
Description: (§1) All animals were used under an IACUC-approved protocol and with strict adherence to the NIH guidelines. Adult male Sprague-Dawley rats (200-300 g, Taconic Farms), housed in the animals care facility under 12:12 light/dark conditions, were placed into 6 groups (n=5-9), anesthetized and siliconized guide cannulae were stereotactically implanted into the right NACC (2.0 mm anterior and 1.0 mm lateral to bregms, and 7.0 mm ventral to the cortical surface) at least 4 days prior to study. Microdialysis probes (2.0 mm, Bioanalytical Systems, BAS, West Lafayette, Ind.) were positioned within the guide cannulae and artificial cerebrospinal fluid (ACSF, 155.0 mM NA^−, 1.1 mM Ca^2−, 2.9 mM K^−, 132.76 mM Cl^−, and 0.83 mM Mg^2−) was administered through the probe using a CMA/100 microinfusion pump (BAS) at a flow rate of 2.0 μl/min. Animals were placed in bowls, and probes were inserted and flushed with ACSF overnight. On the day of the study, a minimum of three samples were injected to determine baseline stability. Samples were collected for 20 min. and injected on-line (CMA/160, BAS). The average Dopamine concentration of these three stable samples was defined as control (100%), and all subsequent treatment values were transformed to a percentage of that control. […] The high performance liquid chromatography (HPLC) system consists of a BAS reverse-phase column (3.0 μC-18), a BAS LC-4C electrochemical transducer with a dual/glassy carbon electrode set at 650 mV, a computer that analyzes data on-line using a commercial software package (Chromograph Bioanalytical Systems), and a dual pen chart recorder. The mobile phase (flow rate 1.0 ml/min) consisted of 7.0% methanol, 50 mM sodium phosphate monobasic, 1.0 mM sodium octyl sulfate, and 0.1 mm […], pH 4.0. DA eluted at 7.5 min. Upon completion of the study, animals were decapitated and frozen sections were obtained for probe placement verification.
Methamphetamine at a dose of 1.25 mg/kg i.p. and 2.5 mg/kg i.p. was administered to the animals. It was noted that methamphetamine elevated extracellular DA concentrations in the NACC by approximately 2500% over basal levels, 100 minutes following administration of 2.5 mg/kg and approximately 1500% over basal levels following administration of 1.25 mg/kg (FIG. 6). DA returned to basal levels approximately 200 minutes following administration.

[5] = system: extracellular DA levels in the NACC; details: SCH 50911 alone; cited from earlier work
GABAB receptors = biological target: T1, GABAB receptors (Rattus norvegicus, UniProt Q9Z0U4); details: 2-hydroxysaclofen; cited from earlier work
T1 construct: microinjection of baclofen (0.1-1 nmol) into the ventral tegmental area; host or cells: ventral tegmental area of living animals (endogenous receptor)
T1 sequence (Q9Z0U4 17-960 limits assumed): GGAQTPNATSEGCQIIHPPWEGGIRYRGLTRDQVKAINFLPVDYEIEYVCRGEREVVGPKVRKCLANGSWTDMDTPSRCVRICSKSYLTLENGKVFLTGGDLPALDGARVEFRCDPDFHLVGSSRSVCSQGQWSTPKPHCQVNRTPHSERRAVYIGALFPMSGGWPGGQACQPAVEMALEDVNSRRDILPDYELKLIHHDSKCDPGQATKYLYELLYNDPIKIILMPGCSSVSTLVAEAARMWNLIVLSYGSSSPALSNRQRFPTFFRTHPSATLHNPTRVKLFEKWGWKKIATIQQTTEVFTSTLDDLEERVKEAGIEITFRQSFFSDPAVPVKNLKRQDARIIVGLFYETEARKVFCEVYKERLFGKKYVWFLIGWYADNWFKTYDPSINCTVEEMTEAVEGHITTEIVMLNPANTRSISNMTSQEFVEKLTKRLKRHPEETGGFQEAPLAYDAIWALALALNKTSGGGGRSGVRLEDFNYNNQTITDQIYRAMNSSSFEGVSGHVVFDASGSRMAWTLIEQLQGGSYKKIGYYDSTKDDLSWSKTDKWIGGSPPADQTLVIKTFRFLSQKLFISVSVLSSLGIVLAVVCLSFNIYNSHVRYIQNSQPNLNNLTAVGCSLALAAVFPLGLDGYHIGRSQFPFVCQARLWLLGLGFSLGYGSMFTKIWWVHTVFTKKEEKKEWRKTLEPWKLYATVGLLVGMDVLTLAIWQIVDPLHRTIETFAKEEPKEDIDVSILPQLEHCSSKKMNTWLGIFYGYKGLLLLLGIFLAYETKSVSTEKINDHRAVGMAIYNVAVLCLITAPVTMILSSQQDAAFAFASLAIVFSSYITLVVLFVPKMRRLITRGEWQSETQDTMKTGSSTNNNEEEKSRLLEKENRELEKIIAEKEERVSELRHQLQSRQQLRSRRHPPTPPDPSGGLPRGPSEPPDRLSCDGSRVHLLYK
T1 sequence (O88871 41-940 partner): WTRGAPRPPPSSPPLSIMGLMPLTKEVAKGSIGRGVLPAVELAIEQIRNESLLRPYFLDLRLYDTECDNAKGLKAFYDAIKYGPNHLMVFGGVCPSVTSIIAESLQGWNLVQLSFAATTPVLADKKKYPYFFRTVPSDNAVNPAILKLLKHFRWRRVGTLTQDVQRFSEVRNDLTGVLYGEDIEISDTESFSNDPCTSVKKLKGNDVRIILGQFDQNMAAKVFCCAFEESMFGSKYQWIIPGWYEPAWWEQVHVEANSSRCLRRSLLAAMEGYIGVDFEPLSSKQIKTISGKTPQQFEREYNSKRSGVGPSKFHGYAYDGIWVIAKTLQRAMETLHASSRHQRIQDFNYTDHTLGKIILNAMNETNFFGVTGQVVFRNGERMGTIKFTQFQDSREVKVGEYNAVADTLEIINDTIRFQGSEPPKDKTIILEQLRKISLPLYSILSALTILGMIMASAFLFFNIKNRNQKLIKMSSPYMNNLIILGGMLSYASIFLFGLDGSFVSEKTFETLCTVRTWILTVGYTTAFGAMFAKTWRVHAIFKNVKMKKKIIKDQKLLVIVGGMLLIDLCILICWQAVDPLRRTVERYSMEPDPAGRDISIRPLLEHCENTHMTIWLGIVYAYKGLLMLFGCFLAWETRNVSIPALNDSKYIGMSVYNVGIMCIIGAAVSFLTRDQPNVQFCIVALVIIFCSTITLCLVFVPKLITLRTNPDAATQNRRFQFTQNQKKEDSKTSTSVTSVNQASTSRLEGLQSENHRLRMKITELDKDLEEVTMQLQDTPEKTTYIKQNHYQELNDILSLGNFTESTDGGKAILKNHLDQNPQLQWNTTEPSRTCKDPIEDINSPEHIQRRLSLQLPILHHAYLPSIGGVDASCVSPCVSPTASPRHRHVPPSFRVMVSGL

[6] = system: extracellular DA in the NACC; assay: In vivo microdialysis: nicotine-induced increases in extracellular NACC DA; set-up: species or system rats
Description: as §1, with “Microdialysis probes (2.0 mm, Bioanalytical Systems, BAS, West Lafayette, Ind.) were positioned within the guide cannulae and artificial cerebrospinal fluid (ACSF, 155.0 mM NA^−, 1.1 mM Ca^2−, 2.9 mM K^−, 132.76 mM Cl^−, and 0.83 mM Mg^2−) was administered through the probe using a CMA/100 microinfusion pump (BAS) at a flow rate of 2.0 μl/min.” left out, “DA eluted at 7.5 min.” left out
The open circles are control animals.
In all studies, animals were placed in the microdialysis bowls the night before the experiment and artificial cerebrospinal fluid (ACSF) was perfused through the microdialysis probes at a flow rate of 2.0 μl/min. At the end of each study, animals were sacrificed and their brains were removed and sectioned for probe placement verification.

[7] = system: mesolimbic extracellular dopamine (DA), NAcc; assay: Microdialysis Example 15: extracellular dopamine after nicotine; type: in vivo; details: nicotine 0.4 mg/kg s.c., saline pretreated animals
Description: (§2) Briefly, two days prior to the microdialysis experiments, siliconized guide cannulae were implanted targeting the NAcc (A=+1.5 mm, L=−1.0 mm, V=−5.6 mm). […] Dialysate samples were assayed for monoamine content by microbore high-pressure liquid chromatography (HPLC) coupled with electrochemical detection. […] Peak effects were analyzed with a one-way ANOVA, and post-hoc Bonferroni t-test of topiramate pretreated groups compared to saline pretreated controls provided ANOVA significance at a critical value of 0.05.

norepinephrine (NE) = assay: Microdialysis Example 15: extracellular norepinephrine after nicotine; type: in vivo; details: nicotine 0.4 mg/kg s.c., saline pretreated animals
Description: as §2

rats [8] = assay: Nicotine-induced conditioned place preference; type: in vivo
Description: A total of 8 rats were examined for each treatment pairing. Animals received 4 pairings over an 8 day period, one pairing per day. […] The protocol on days 1 and 2 was repeated 3 additional times.
The CPP apparatus was made entirely of plexiglass, except for the floor in one of the pairing chambers, which was made of a stainless steel plate with holes (0.5 mm in diameter) spaced 0.5 mm from edge to edge. The two pairing chambers differed in visual and tactile cues. One chamber was entirely light blue with the stainless steel floor and the second chamber was light blue with horizontal black stripes (2.5 cm wide) spaced 3.8 cm apart with a smooth plexiglass floor.
The conditioning procedure consisted of 20 sessions carried out consecutively over 20 days. The first three sessions were habituation sessions, during which the animals were handled for 5 minutes per day and exposed to the sights and sounds of the test room. […] The amount of time spent in each chamber was recorded using an automated infrared beam electronically coupled to a timer.
The animals were habituated as described above. […] Subsequently, the animals were then placed into the appropriate chamber for 30 minutes. This was repeated for 8 pairings over a 16 day period. On the test day, animals were placed in the CPP apparatus and allowed free access to the all of the CPP chambers and the amount of time spent in chamber was recorded.

[9] = system: extracellular DA levels in the NACC; details: cited from earlier work
Sprague-Dawley rats = assay: Gross locomotor activity during microdialysis (infrared motion sensor); details: nicotine, regardless of the dose of GVG
Description: In parallel to the quantitative estimates of dopamine concentration, the locomotor response of these animals to stimulant administration was simultaneously quantified using an infrared motion sensor. This infrared optical proximity detector monitored movement of the gimbaled arm, an integral component of the freely moving system. The digital output of the detector was interfaced with an IBM personal computer and programmed to count both positive and negative arm deflections. […] Locomotor activity was then expressed as the number of deflections per sample interval.

serotonin (5-HT) = assay: Microdialysis Example 15: extracellular serotonin after nicotine; type: in vivo; details: nicotine 0.4 mg/kg s.c., saline pretreated animals
Description: as §2

[10] = system: synaptic DA (11C-raclopride binding, striatum); assay: Primate PET: 11C-raclopride mean DV ratio, GVG and nicotine; type: in vivo, baboons (Papio anubis)
Description: Adult female baboons (n=16) (Papio anubis, 13-18 kg) were used for all imaging studies and carbon-11 labeled raclopride (^11C-raclopride). […] Control animals (Group 1) received two injections of ^11C-raclopride without any drug intervention in order to determine the test/retest variability of the measurement. […] Arterial blood samples were obtained throughout the study and selected plasma samples were analyzed for the presence of unchanged ^11C-raclopride. Animals were not removed from the gantry between isotope injections.
Each primate (n=16) received two ^11C-raclopride injections. […] Test/retest primates (n=7, Group 1, Table XVI) received placebo (0.9% saline, 1 ml/kg) 30 mins prior to the second radiotracer injection in order to determine the test/retest variability of the method.

[11] = Nicotine 0.4 mg/kg s.c./Vehicle, 4 pairings (Table XII)
[12] = acquisition, Saline/Nicotine 0.4 mg/kg s.c., 8 pairings (Table XV)
[13] = expression, Saline/Nicotine (0.4 mg/kg s.c.) 8 pairings, saline on test day
[14] = expression, Saline/Nicotine (0.4 mg/kg s.c.) 8 pairings, saline on test day, listed as nicotine

CC(=O)Oc1ccc2c3c1O[C@H]1[C@@H](OC(C)=O)C=C[C@H]4[C@@H](C2)N(C)CC[C@@]341 [heroin]
time for DA to return to baseline (NAc DA; cocaine 20 mg/kg i.p. or heroin 0.5 mg/kg i.p. alone): ≤ 140 min
increase in NAc DA (NAc DA; heroin alone 0.5 mg/kg i.p., 60 minutes following administration): 70%

NC(=O)CCC/N=C(\c1ccc(Cl)cc1)c1cc(F)ccc1O [progabide]
conditioned place preference or aversion, alone (rat; progabide alone): does not produce conditioned place preference or aversion
CPP response to […] i.p. of amphetamine (rat; progabide pretreatment, present for 35 minutes): did not alter the CPP response

NCC(CC(=O)O)c1ccc(Cl)cc1 (centres unmarked) [baclofen]
rate-current intensity curve of lateral hypothalamus stimulation (rats [1]): rightward shift of the rate-current intensity curve
self-administration of cocaine (rats [2]): suppress self-administration of cocaine
break points for intravenous administration of cocaine (male Wistar rats): dose-dependent decrease
rate of drug intake (male Wistar rats): did not affect the rate of drug intake

Cc1nnc2n1-c1ccc(Cl)cc1C(c1ccccc1)=NC2 [alprazolam]
rate of cocaine self-administration (GABAA receptor complex): decreased the rate of cocaine self-administration

CCO [Ethanol]
elevation of extracellular DA concentrations in the NACC over basal levels [3]: approximately 200%

NCC1(CC(=O)O)CCCCC1 [gabapentin]
cocaine withdrawal and craving (cocaine abuser): attenuated cocaine withdrawal and craving

CN[C@@H](C)Cc1ccccc1 [methamphetamine]
time for DA to return to basal levels ([4]; methamphetamine): approximately 200 minutes
elevation of extracellular DA concentrations in the NACC over basal levels ([4]; methamphetamine 1.25 mg/kg i.p.): approximately 1500%

CC1(C)CO[C@@H](CC(=O)O)CN1 [SCH 50911]
DA levels when given alone [5]: does not significantly alter DA levels

NCC(O)(CS(=O)(=O)O)c1ccc(Cl)cc1 (centres unmarked) [2-hydroxysaclofen]
effect of baclofen on morphine CPP (GABAB receptors): antagonized

CN1CCC[C@H]1c1cccnc1 [Nicotine]
increase of NACC DA levels (rank order) ([6]; nicotine): 90%
time for DA to return to basal levels ([6]; nicotine 0.4 mg/kg s.c., Group 1): approximately 160 minutes
DA levels, % of basal levels ([6]; nicotine 0.4 mg/kg s.c., Group 1 (naive)): approximately 200%
increase in extracellular DA concentrations in the NACC ([6]; nicotine 0.4 mg/kg s.c., Group 1 (naive), 80 minutes following administration): approximately 100%
DA increase [7]: 70±10.5%
NE increase (norepinephrine (NE)): 176±26%
Time spent in chambers, Paired (rats [8]; [11]): 9.4 ± 0.5 min
Time spent in chambers, Unpaired (rats [8]; [11]): 5.6 ± 0.5 min
Time spent in chambers, Paired (rats [8]; [12]): 9.6 ± 0.6^1 min
Time spent in chambers, Unpaired (rats [8]; [12]): 5.4 ± 0.6 min
Time spent in chambers, Paired (rats [8]; [13]): 9.6 ± 0.6 min
Time spent in chambers, Unpaired (rats [8]; [13]): 5.4 ± 0.6 min
Time spent in chambers, Paired (rats [8]; [14]): 9.6 ± 0.6 min
Time spent in chambers, Unpaired (rats [8]; [14]): 5.4 ± 0.6 min
increase in extracellular DA levels in the NACC ([9]; nicotine 0.6 mg/kg s.c.): 220%
increase in extracellular DA levels in the NACC ([9]; nicotine 0.8 mg/kg s.c.): 179%
gross locomotor activity (Sprague-Dawley rats): increased gross locomotor activity
5-HT increase (serotonin (5-HT)): 116±11.2%
reduction of the mean DV ratio ([10]; Group 3: nicotine alone): 12%
% Change in Mean DV Ratio ([10]; Group 3: nicotine alone 0.3 mg total, 30 minutes prior to second 11C-raclopride injection): −12.3 ± 2.6%

Source: US6890951B2, “Treatment of addiction and addiction-related behavior” (Brookhaven Science Associates LLC, priority 1998, dated 2005)
